The source of these data is US10689622B2, “Culture medium for proliferating stem cell, which contains sulfated compound” (AJINOMOTO CO., INC., priority 2012, dated 2020).

Data set [1] has as its target T1, bFGF (Homo sapiens, UniProt P09038).
T1 construct: purchased Lonza (via TAKARA BIO INC.) Ser. No. 00/190,632
Kind of data set: Evaluation of bFGF stabilization in Lonza serum-free medium (ELISA). The data set is classed as biochemical. How it is done:
A test compound was dissolved in phosphate buffered saline, and diluted 10-fold with a serum-free medium to adjust to the concentrations shown in Table 4 (test sample). The test sample was left standing in a tightly sealed Falcon tube at 37° C. for 7 days (Tables 5 to 8-2) or 3 days (Table 8-3), and the bFGF concentration was quantified by ELISA measurement. A phosphate buffered saline without a test compound was diluted 10-fold with a serum-free medium, and left standing at 37° C. or 4° C. for 7 days or 3 days, and used as a control.
(§1) A commercially available measurement kit (human bFGF ELISA kit, ELH-bFGF-001, Ray Biotech) was used for quantification of bFGF in the medium. The measurement procedures followed the protocol attached to the kit. The bFGF concentration of the serum-free medium was calculated from the analytical curve (conversion formula) drawn from the absorbance of an analytical curve standard solution. The evaluation criteria of Tables 5-8 are as follows:
A test compound was dissolved in phosphate buffered saline, and diluted 10-fold with a serum-free medium to adjust to the concentrations shown in Table 13 (test sample). The test sample was left standing in a tightly sealed Falcon tube at 37° C. for 7 days, and the bFGF concentration was quantified by ELISA measurement. A phosphate buffered saline without a test compound was diluted 10-fold with a serum-free medium, and left standing at 37° C. or 4° C. for 7 days, and used as a control.
A commercially available measurement kit (human bFGF ELISA kit, ELH-bFGF-001, Ray Biotech) was used for quantification of bFGF in the medium. The measurement procedures followed the protocol attached to the kit. The bFGF concentration of the serum-free medium was calculated from the analytical curve (conversion formula) drawn from the absorbance of an analytical curve standard solution. The evaluation criteria of Table 13 are as follows: […]

In data set [2] the target is T1, bFGF. In words: Evaluation of bFGF stabilization in Essential 8 medium (ELISA). Type of data set: biochemical. As to conditions: 37° C. for 7 days. As for the experimental part: as §1
A test compound was dissolved in phosphate buffered saline, and diluted 10-fold with a serum-free medium to adjust the concentration shown in Table 4 (test sample). The test sample was left standing in a tightly sealed Falcon tube at 37° C. for 7 days, and the bFGF concentration was quantified by ELISA measurement. A phosphate buffered saline without a test compound was diluted 10-fold with Essential 8 medium or ReproFF2 medium, and left standing at 37° C. or 4° C. for 7 days, and used as a control.
A commercially available measurement kit (human bFGF ELISA kit, ELH-bFGF-001, Ray Biotech) was used for quantification of bFGF in the medium. The measurement procedures followed the protocol attached to the kit. The bFGF concentration of the serum-free medium was calculated from the analytical curve (conversion formula) drawn from the absorbance of an analytical curve standard solution. The evaluation criteria of Table 13 are as follows:
A test compound was dissolved in phosphate buffered saline, and diluted 10-fold with a serum-free medium to adjust the concentration shown in Table 12 (test sample). The test sample was left standing in a tightly sealed Falcon tube at 37° C. for 7 days, and the bFGF concentration was quantified by ELISA measurement. A phosphate buffered saline without a test compound was diluted 10-fold with Essential 8 medium or ReproFF2 medium, and left standing at 37° C. or 4° C. for 7 days, and used as a control.

Data set [3] is described as follows: Measurement of content level of sulfur in test compound (ICP). Type of data set: physicochemical. As to conditions: for sulfur content Found (inorganic analysis): ICPS-8100, evaluation samples containing 0.01 wt % test compound. An excerpt:
The content level of sulfur in the sulfated saccharide is generally not less than 5 wt %, preferably not less than 10 wt %, more preferably not less than 15 wt %, and the upper limit is generally not more than 40 wt %, preferably not more than 35 wt %, more preferably not more than 30 wt %. […] Here, the content level of sulfur is a proportion in wt % of sulfur derived only from the sulfate group in sulfated saccharides, which can be measured by a method known in the field (e.g., rhodizonate method, elemental analysis or luminescent spectral analysis).
The content level of sulfur in the sulfated polymer is generally not less than 5 wt %, preferably not less than 10 wt %, more preferably not less than 15 wt %, and the upper limit is generally not more than 40 wt %. […] Here, the content level of sulfur is a proportion in wt % of sulfur in the sulfated polymer, which can be measured by a method known in the field such as rhodizonate method, elemental analysis or luminescent spectral analysis).
The relationship between the content level of sulfur in a test compound (sulfur content) and the cell proliferation promoting effect was examined. The sulfur content was measured using ICPS-8100 manufactured by SHIMADZU CORPORATION and analyzed using ICPS-8000 series Ver1.03. As the reference standard of sulfur, the standard for ICP-MS manufactured by Accu Standard was used. Sulfur reference standard solutions (0, 1, 10, 30, 50 ppm) were prepared, and the sulfur content of the evaluation samples containing 0.01 wt % test compound was measured by an analytical curve method.

The subject of data set [4] is Human bone marrow-derived mesenchymal stem cells. In words: Mesenchymal stem cell proliferation system (cell number by DNA quantification). As to conditions: for number of cells relative to control: mesenchymal stem cells.
Description: Human bone marrow-derived mesenchymal stem cells (Lonza, Human Mesenchymal Stem Cell) cultured in mesenchymal stem cell-dedicated medium (Lonza, MSCGM) or Dulbecco's Modified Eagle Medium (Invitrogen, GIBCO D-MEM) containing inactivated fetal bovine serum (Invitrogen, GIBCO FBS) and penicillin-streptomycin (Sigma-Aldrich Co. LLC.) were cultured in exchanged Lonza serum-free medium. The mesenchymal stem cells thus-acclimated to serum-free culture were suspended in Lonza serum-free medium, and seeded on a 24 well culture plate (Nippon Becton Dickinson Company, Ltd., Falcon culture plate) at 20,000 cells/well or a 6 well culture plate (Nippon Becton Dickinson Company, Ltd., Falcon culture plate) at 50,000 cells/well. Then, a test compound solution after filter sterilization and adjustment to a given concentration was added, and the cells were cultured in an incubator (Thermo Scientific, Forma incubator) under the 5% CO2/37° C. conditions for 7 to 8 days. When the medium exchange was necessary, the medium was exchanged 2 to 3 days after the seeding. In this case, the test compound solution was also added again in the same manner as in seeding. In this case, various compound solutions were added again in the same manner as in seeding. After culturing for 7 to 8 days, the medium was removed and DNA quantification was performed. As a control, the cells were cultured in the same manner in a medium without a test compound and added with phosphate buffered saline.
The medium in the 24 well culture plate was removed, and the cells were washed with phosphate buffered saline. The sodium lauryl sulfate solution (500 μl/well) was added, and the mixture was left standing at 37° C. for 4 hours. The sodium lauryl sulfate solution (1.0 ml) was also added to a cell pellet with a known cell number, and the mixture was left standing at 37° C. for 4 hours. As for the cells in the 24 well culture plate, a part (50 μl) of the lysate was transferred to a 96 well black microplate. The solution used for treating the cell pellets was successively diluted with sodium lauryl sulfate solution and used as solutions for drawing an analytical curve. Also, a part (50 μl) of the solutions for drawing an analytical curve was each transferred to the 96 well black microplate. […] The fluorescence was measured by a microplate reader (excitation wavelength: 355 nm, measurement wavelength: 460 nm) within 5 minutes from the addition. The cell number of the 24 well cell culture plate was calculated from the analytical curve drawn (conversion formula). The evaluation criteria were as follows.
[5] abbreviates: Lonza serum-free medium, 37° C. for 7 days, test compound 25 ng/ml.
Setting [6] is: Lonza serum-free medium, 37° C. for 7 days, test compound 250 ng/ml.
The mark [7] stands for this setting: Lonza serum-free medium, 37° C. for 7 days, test compound 25 μg/ml.
Setting [8] is: Lonza serum-free medium, 37° C. for 7 days, test compound 250 μg/ml.
Setting [9] is: effectiveness in ELISA evaluation of mesenchymal stem cells (medium), 4° C. control ratio.

T1 sequence (P09038 143-288): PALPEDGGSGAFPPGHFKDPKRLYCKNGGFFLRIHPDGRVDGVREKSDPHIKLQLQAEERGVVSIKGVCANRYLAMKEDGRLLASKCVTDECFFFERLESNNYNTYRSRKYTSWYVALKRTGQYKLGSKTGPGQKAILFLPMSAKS

Regarding L-triserine SO3Na, the “concentration showing a suppressive effect on a decrease in the bFGF concentration of the medium” value on bFGF [1] (Lonza serum-free medium, 37° C. for 7 days) was “not less than 25 μg/ml”. Also, the “bFGF concentration relative to that of 4° C. control (ELISA)” value (shortened to “bFGF concentration relative to that”) is “x (bFGF concentration was less than 10% relative to that of 4 °C control)” on bFGF [1] (Lonza serum-free medium, 37° C. for 7 days, test compound 250 pg/ml); “x (bFGF concentration was less than 10% relative to that of 4 °C control)” on bFGF [1] (setting [5]); “x (bFGF concentration was less than 10% relative to that of 4 °C control)” on bFGF [1] (setting [6]); “− (bFGF concentration was not less than 10% and less than 30% relative to that of 4 °C control)” at bFGF [1] (setting [7]); “++ (bFGF concentration was not less than 50% and less than 70% relative to that of 4 °C control)” on bFGF [1] (setting [8]). In addition, the “concentration at which a decrease in the protein amount of FGF is not suppressed” value on bFGF [1] (as shown in the Examples (methods of Examples I-1 and II-1)) is listed as “not more than 2.5 μg/ml”. In addition, the “effectiveness ELISA” value on bFGF [1] (summary grade of bFGF stabilization) is “++ (bFGF concentration was not less than 50% and less than 70% relative to that of 4 °C control)”. Moreover, the “bFGF concentration, 4° C. ctrl ratio” value is “x (bFGF concentration was less than 10% relative to that of 4 °C control)” on bFGF [2] (test compound 250 pg/ml); “x (bFGF concentration was less than 10% relative to that of 4 °C control)” at bFGF [2] (test compound 25 ng/ml); “x (bFGF concentration was less than 10% relative to that of 4 °C control)” on bFGF [2] (test compound 250 ng/ml); “++ (bFGF concentration was not less than 50% and less than 70% relative to that of 4 °C control)” at bFGF [2] (test compound 25 μg/ml); “+++ (bFGF concentration was not less than 70% relative to that of 4 °C control)” at bFGF [2] (test compound 250 μg/ml). The “sulfer content Found (inorganic analysis)” value in data set [3] came to 18. Also, the effectiveness cells entry in data set [4] (summary grade of cell proliferation) was “⊚ (not less than 120)”. Moreover, the “number of cells relative to control” value in data set [4] (test compound 25 pg/ml) is listed as “— (100-50)”; in data set [4] (test compound 250 pg/ml), “◯ (not less than 100)”; in data set [4] (test compound 25 ng/ml) it was “— (100-50)”; in data set [4] (test compound 250 ng/ml) it was “— (100-50)”.

Regarding stachyose SO3Na, the “bFGF concentration relative to that” value at bFGF [1] (setting [5]) was “x (bFGF concentration was less than 10% relative to that of 4 °C control)”; at bFGF [1] (setting [6]) it was “− (bFGF concentration was not less than 10% and less than 30% relative to that of 4 °C control)”; on bFGF [1] (setting [7]), “+++ (bFGF concentration was not less than 70% relative to that of 4 °C control)”; at bFGF [1] (setting [8]), “+++ (bFGF concentration was not less than 70% relative to that of 4 °C control)”; on bFGF [2] (test compound 250 pg/ml), “x (bFGF concentration was less than 10% relative to that of 4 °C control)”; at bFGF [2] (test compound 25 ng/ml), “x (bFGF concentration was less than 10% relative to that of 4 °C control)”. The “bFGF concentration relative to that” value was “x (bFGF concentration was less than 10% relative to that of 4 °C control)” on bFGF [2] (test compound 250 ng/ml); “x (bFGF concentration was less than 10% relative to that of 4 °C control)” at bFGF [2] (test compound 25 μg/ml); “++ (bFGF concentration was not less than 50% and less than 70% relative to that of 4 °C control)” on bFGF [2] (test compound 250 μg/ml). Also, at bFGF [1] (setting [9]), the “effectiveness ELISA” value was “+++ (+++ 70%<)”. In addition, on bFGF [2], the “concentration showing a suppressive effect on a decrease in the bFGF concentration of the medium” value is listed as “not less than 250 μg/ml”. The “sulfur content Found (inorganic analysis)” value (“sulfur content Found” for short) in data set [3] is reported as 18 wt %.

On to xylitol SO3Na, for which the “bFGF concentration relative to that” value at bFGF [1] (setting [5]) is “x (bFGF concentration was less than 10% relative to that of 4 °C control)”; on bFGF [1] (setting [6]), “x (bFGF concentration was less than 10% relative to that of 4 °C control)”; at bFGF [1] (setting [7]), “x (bFGF concentration was less than 10% relative to that of 4 °C control)”; at bFGF [1] (setting [8]), “++ (bFGF concentration was not less than 50% and less than 70% relative to that of 4 °C control)”. Besides, the “effectiveness ELISA” value on bFGF [1] (setting [9]) is “+++ (+++ 70%<)”. Further, the “sulfur content Found” value in data set [3] worked out at 25 wt %. Moreover, the effectiveness cells result in data set [4] (growth of mesenchymal stem cell, control ratio) was “◯ (◯ not leas than 100%)”.

As for α-cyclodextrin SO3Na [α-CD•SO3Na], the “bFGF concentration relative to that” value on bFGF [1] (setting [5]) was “x (bFGF concentration was less than 10% relative to that of 4 °C control)”; on bFGF [1] (setting [6]), “+ (bFGF concentration was not less than 30% and less than 50% relative to that of 4 °C control)”; on bFGF [1] (setting [7]) it was “− (bFGF concentration was not less than 10% and less than 30% relative to that of 4 °C control)”; on bFGF [1] (setting [8]) it was “+ (bFGF concentration was not less than 30% and less than 50% relative to that of 4 °C control)”; on bFGF [2] (test compound 250 pg/ml), “x (bFGF concentration was less than 10% relative to that of 4 °C control)”; on bFGF [2] (test compound 25 ng/ml), “x (bFGF concentration was less than 10% relative to that of 4 °C control)”. Besides, the “bFGF concentration relative to that” value at bFGF [2] (test compound 250 ng/ml) is “x (bFGF concentration was less than 10% relative to that of 4 °C control)”; at bFGF [2] (test compound 25 μg/ml), “+++ (bFGF concentration was not less than 70% relative to that of 4 °C control)”; on bFGF [2] (test compound 250 μg/ml), “+++ (bFGF concentration was not less than 70% relative to that of 4 °C control)”. The “effectiveness ELISA” value at bFGF [1] (setting [9]) is “++ (++ 50%<)”. In addition, on bFGF [2], the “concentration showing a suppressive effect on a decrease in the bFGF concentration of the medium” value was “not less than 2.5 μg/ml”. In data set [3], the “sulfur content Found” value turned out to be 14 wt %.
